Test results: patent US11718604B2, “4-amino-6-(1,3-benzodioxole)picolinates and their use as herbicides” (Dow AgroSciences LLC, priority 2018, dated 2023)

Experiments:
Assay type in all cases: in vivo
[1] = system: VIOTR: wild violet (Viola tricolor); assay: Post-emergent herbicidal test, wild violet; details: post-emergence, 336 h, 14 days after application, read-out: Visual Growth Reduction (%) 14 Days After Application VIOTR; for pest or weed control at 17.5 g/ha: 17.5 g ai/ha; for pest or weed control at 35 g/ha: 35 g ai/ha; for pest or weed control at 70 g/ha: 70 g ai/ha; for pest or weed control at 140 g/ha: 140 g ai/ha
How it was run: (§1)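 Post-emergence foliar spray, 187 L/ha, 1st–2nd true leaf plants; vehicle acetone/DMSO/IPA/water + Atplus 411F + Triton X-155; solvent-blank controls; subirrigated; 14 d greenhouse, visual % injury.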

[2] = system: BRSNN: oilseed rape, canola (Brassica napus); assay: Post-emergent herbicidal test, oilseed rape; details: post-emergence, 336 h, 14 days after application, read-out: Visual Growth Reduction (%) 14 Days After Application BRSNN; for pest or weed control at 17.5 g/ha: 17.5 g ai/ha; for pest or weed control at 35 g/ha: 35 g ai/ha; for pest or weed control at 70 g/ha: 70 g ai/ha; for pest or weed control at 140 g/ha: 140 g ai/ha
How it was run: as §1

[3] = system: ABUTH: velvetleaf (Abutilon theophrasti); assay: Post-emergent herbicidal test, velvetleaf; details: post-emergence, 336 h, 14 days after application, read-out: Visual Growth Reduction (%) 14 Days After Application ABUTH; for pest or weed control at 17.5 g/ha: 17.5 g ai/ha; for pest or weed control at 35 g/ha: 35 g ai/ha; for pest or weed control at 70 g/ha: 70 g ai/ha; for pest or weed control at 140 g/ha: 140 g ai/ha
How it was run: as §1

[4] = system: SETFA: giant foxtail (Setaria faberi); assay: Post-emergent herbicidal test, giant foxtail; details: post-emergence, 336 h, 14 days after application, read-out: Visual Growth Reduction (%) 14 Days After Application SETFA; for pest or weed control at 17.5 g/ha: 17.5 g ai/ha; for pest or weed control at 35 g/ha: 35 g ai/ha; for pest or weed control at 70 g/ha: 70 g ai/ha; for pest or weed control at 140 g/ha: 140 g ai/ha
How it was run: as §1

[5] = system: DIGSA: large crabgrass (Digitaria sanguinalis); assay: Post-emergent herbicidal test, large crabgrass; details: post-emergence, 336 h, 14 days after application, read-out: Visual Growth Reduction (%) 14 Days After Application DIGSA; for pest or weed control at 17.5 g/ha: 17.5 g ai/ha; for pest or weed control at 35 g/ha: 35 g ai/ha; for pest or weed control at 70 g/ha: 70 g ai/ha; for pest or weed control at 140 g/ha: 140 g ai/ha
How it was run: as §1

[6] = system: ECHCG: barnyardgrass (Echinochloa crus-galli); assay: Post-emergent herbicidal test, barnyardgrass; details: post-emergence, 336 h, 14 days after application, read-out: Visual Growth Reduction (%) 14 Days After Application ECHCG; for pest or weed control at 17.5 g/ha: 17.5 g ai/ha; for pest or weed control at 35 g/ha: 35 g ai/ha; for pest or weed control at 70 g/ha: 70 g ai/ha; for pest or weed control at 140 g/ha: 140 g ai/ha
How it was run: as §1

[7] = system: CYPES: yellow nutsedge (Cyperus esculentus); assay: Post-emergent herbicidal test, yellow nutsedge; details: post-emergence, 336 h, 14 days after application, read-out: Visual Growth Reduction (%) 14 Days After Application CYPES; for pest or weed control at 17.5 g/ha: 17.5 g ai/ha; for pest or weed control at 35 g/ha: 35 g ai/ha; for pest or weed control at 70 g/ha: 70 g ai/ha; for pest or weed control at 140 g/ha: 140 g ai/ha
How it was run: as §1

[8] = system: CIRAR: Canada thistle (Cirsium arvense); assay: Post-emergent herbicidal test, Canada thistle; details: post-emergence, 336 h, 14 days after application, read-out: Visual Growth Reduction (%) 14 Days After Application CIRAR; for pest or weed control at 17.5 g/ha: 17.5 g ai/ha; for pest or weed control at 35 g/ha: 35 g ai/ha; for pest or weed control at 70 g/ha: 70 g ai/ha; for pest or weed control at 140 g/ha: 140 g ai/ha
How it was run: as §1

[9] = system: IPOHE: ivyleaf morningglory (Ipomoea hederacea); assay: Post-emergent herbicidal test, ivyleaf morningglory; details: post-emergence, 336 h, 14 days after application, read-out: Visual Growth Reduction (%) 14 Days After Application IPOHE; for pest or weed control at 17.5 g/ha: 17.5 g ai/ha; for pest or weed control at 35 g/ha: 35 g ai/ha; for pest or weed control at 70 g/ha: 70 g ai/ha; for pest or weed control at 140 g/ha: 140 g ai/ha
How it was run: as §1

[10] = system: EPHHL: wild poinsettia (Euphorbia heterophylla); assay: Post-emergent herbicidal test, wild poinsettia; details: post-emergence, 336 h, 14 days after application, read-out: Visual Growth Reduction (%) 14 Days After Application EPHHL; for pest or weed control at 17.5 g/ha: 17.5 g ai/ha; for pest or weed control at 35 g/ha: 35 g ai/ha; for pest or weed control at 70 g/ha: 70 g ai/ha; for pest or weed control at 140 g/ha: 140 g ai/ha
How it was run: as §1

[11] = system: SORVU: shattercane (Sorghum bicolor); assay: Post-emergent herbicidal test, shattercane; details: post-emergence, 336 h, 14 days after application, read-out: Visual Growth Reduction (%) 14 Days After Application SORVU; for pest or weed control at 17.5 g/ha: 17.5 g ai/ha; for pest or weed control at 35 g/ha: 35 g ai/ha; for pest or weed control at 70 g/ha: 70 g ai/ha; for pest or weed control at 140 g/ha: 140 g ai/ha
How it was run: as §1

## C#CCOC(=O)c1nc(-c2ccc(Cl)c3c2OCO3)c(F)c(N)c1Cl [Compound 1C]
[1]
  pest or weed control at 17.5 g/ha: 65%
  pest or weed control at 35 g/ha: 65%
  pest or weed control at 70 g/ha: 60%
  pest or weed control at 140 g/ha: 65%
[2]
  pest or weed control at 17.5 g/ha: 95%
  pest or weed control at 35 g/ha: 97%
  pest or weed control at 70 g/ha: 100%
  pest or weed control at 140 g/ha: 100%
[3]
  pest or weed control at 17.5 g/ha: 100%
  pest or weed control at 35 g/ha: 100%
  pest or weed control at 70 g/ha: 100%
  pest or weed control at 140 g/ha: 100%
[4]
  pest or weed control at 17.5 g/ha: 0%
  pest or weed control at 35 g/ha: 0%
  pest or weed control at 70 g/ha: 50%
  pest or weed control at 140 g/ha: 60%
[5]
  pest or weed control at 17.5 g/ha: 0%
  pest or weed control at 35 g/ha: 0%
  pest or weed control at 70 g/ha: 0%
  pest or weed control at 140 g/ha: 60%
[6]
  pest or weed control at 17.5 g/ha: 0%
  pest or weed control at 35 g/ha: 0%
  pest or weed control at 70 g/ha: 0%
  pest or weed control at 140 g/ha: 0%
[7]
  pest or weed control at 17.5 g/ha: 30%
  pest or weed control at 35 g/ha: 80%
  pest or weed control at 70 g/ha: 85%
  pest or weed control at 140 g/ha: 80%
[8]
  pest or weed control at 17.5 g/ha: 70%
  pest or weed control at 35 g/ha: 85%
  pest or weed control at 70 g/ha: 90%
  pest or weed control at 140 g/ha: 90%
[9]
  pest or weed control at 17.5 g/ha: 0%
  pest or weed control at 35 g/ha: 0%
  pest or weed control at 70 g/ha: 0%
  pest or weed control at 140 g/ha: 10%
[10]
  pest or weed control at 17.5 g/ha: 10%
  pest or weed control at 35 g/ha: 10%
  pest or weed control at 70 g/ha: 10%
  pest or weed control at 140 g/ha: 25%
[11]
  pest or weed control at 17.5 g/ha: 10%
  pest or weed control at 35 g/ha: 50%
  pest or weed control at 70 g/ha: 70%
  pest or weed control at 140 g/ha: 70%

## COC(=O)c1nc(-c2cccc3c2OCO3)c(F)c(N)c1Cl [Compound 2]
[1]
  pest or weed control at 17.5 g/ha: 0%
  pest or weed control at 35 g/ha: 0%
  pest or weed control at 70 g/ha: 0%
  pest or weed control at 140 g/ha: 10%
[2]
  pest or weed control at 17.5 g/ha: 30%
  pest or weed control at 35 g/ha: 40%
  pest or weed control at 70 g/ha: 85%
  pest or weed control at 140 g/ha: 90%
[3]
  pest or weed control at 17.5 g/ha: 50%
  pest or weed control at 35 g/ha: 60%
  pest or weed control at 70 g/ha: 75%
  pest or weed control at 140 g/ha: 95%
[4]
  pest or weed control at 17.5 g/ha: 0%
  pest or weed control at 35 g/ha: 0%
  pest or weed control at 70 g/ha: 0%
  pest or weed control at 140 g/ha: 0%
[5]
  pest or weed control at 17.5 g/ha: 0%
  pest or weed control at 35 g/ha: 0%
  pest or weed control at 70 g/ha: 0%
  pest or weed control at 140 g/ha: 0%
[6]
  pest or weed control at 17.5 g/ha: 0%
  pest or weed control at 35 g/ha: 0%
  pest or weed control at 70 g/ha: 0%
  pest or weed control at 140 g/ha: 0%
[7]
  pest or weed control at 17.5 g/ha: 0%
  pest or weed control at 35 g/ha: 0%
  pest or weed control at 70 g/ha: 10%
  pest or weed control at 140 g/ha: 30%
[8]
  pest or weed control at 17.5 g/ha: 60%
  pest or weed control at 35 g/ha: 100%
  pest or weed control at 70 g/ha: 98%
  pest or weed control at 140 g/ha: 98%
[9]
  pest or weed control at 17.5 g/ha: 0%
  pest or weed control at 35 g/ha: 0%
  pest or weed control at 70 g/ha: 10%
  pest or weed control at 140 g/ha: 25%
[10]
  pest or weed control at 17.5 g/ha: 0%
  pest or weed control at 35 g/ha: 0%
  pest or weed control at 70 g/ha: 0%
  pest or weed control at 140 g/ha: 0%
[11]
  pest or weed control at 17.5 g/ha: 0%
  pest or weed control at 35 g/ha: 0%
  pest or weed control at 70 g/ha: 0%
  pest or weed control at 140 g/ha: 0%
